Tested on: activity of the sympathetic nerve
Test: Test of measuring sympathetic nerve activity: power spectrum analysis of systolic blood pressure fluctuation (SBP-LF) when smelling the aroma
Type: in vivo, human test subjects
Description: The test samples were prepared by diluting ethyl 4-methoxybenzoate with ethanol to a concentration of 0.1 mass %, and how the aromas of those test samples influenced the sympathetic nerve activity was tested.
(Test Method of Measuring Sympathetic Nerve Activity)
A heart beat interval or blood pressure constantly change in a complex manner even at rest, and is under control of multiple nervous systems representing the sympathetic nerve and the parasympathetic nerve. Thus, it is known that the activity of respective nervous systems can be calculated by analyzing the frequency of a heart beat interval variation (a heart beat interval fluctuation) or a blood pressure variation (a blood pressure fluctuation). […] The activity of the sympathetic nerve is quantified from the intensity of the low frequency component (SBP-LF), and an influence of an aroma given off from the test sample on the activity of the sympathetic nerve was evaluated. […]
A tonometry sensor was fitted at a carpal radius […] of a test subject, and is connected to a patient monitor for continuous measurement of blood pressure. […] Continuously measured blood pressure data was taken in a personal computer to undergo power spectrum analysis of the blood pressure fluctuation in systole using automatic nervous system activity analytical software. […]

## CCOC(=O)c1ccc(OC)cc1 [ethyl 4-methoxybenzoate]
Six test subjects in their 20's smelling aroma of 0.1 mass % test sample
  activity of the sympathetic nerve (determination from SBP-LF ratio): the activity of the sympathetic nerve quieted down
Six test subjects in their 20's, 0.1 mass % in ethanol, 20 μl soaked into cotton stuck below the nose, ethanol volatilized, 25° C., humidity 45%
  SBP-LF ratio (SBP-LF value when smelling the aroma divided by SBP-LF value when not smelling the aroma): smaller than 1

Source: patent US20130143964A1, “S[…], AND COSMETIC COMPOSITION, FOOD, AND SUNDRY ARTICLE CONTAINING THE SAME” (priority 2010, published 2013)
